Assay results taken from patent US9533969B2, “Materials and method for inhibiting replication protein A and uses thereof” (Indiana University Research and Technology Corp., priority 2010, dated 2017).
“And” between values parts separate entries of the source, which are not always exact repeats. Identical values can stand only once.

Legend:
H460 NSCLC cell line [1] = assay: Annexin V/PI flow cytometry, induction of cell death; type: cell-based, human; settings: H460 cells; for IC50: Homo sapiens, NCI-H460, 48 hour exposure, annexinV/PI staining, read-out: IC50 (μM) Cellular
Experimental: (§1) H460 cells were analyzed for apoptosis using an Annexin V-FITC/Propidium iodide (PI) Vybrant Apoptosis Assay Kit (Invitrogen), according to manufacturer's instructions. Cells were plated at a density of 1×10^4 cells per cm^2 and allowed to adhere for 24 hours and then treated with compound TDLR-505 for 48 hours. Following plating and treatment of H460 cells as described above, adherent and non-adherent cells were collected, processed, and analyzed on a BD FACScan flow cytometer. Data was analyzed using WinMDI software (http://facs.scripps.edu/software.html). Cell cycle analysis was performed by PI staining Briefly, cells were plated and treated with compound collected and then washed twice with PBS-EDTA supplemented with 1% BSA. Cells were fixed in 70% EtOH at −20° C. while vortexing followed by incubation on ice for 30 minutes. Cells were then collected and stained with PI solution (10 μg/mL PI and 25 μg/mL RNaseA in PBS-EDTA supplemented with 1% BSA). Cells were analyzed on a Becton Dickinson FACScan flow cytometer. Cells were gated and analyzed on a histogram with events plotted against the FL2-A parameter. Cell cycle distribution was analyzed using ModFit software. G2 arrest was induced by treatment with 0.8 μg/mL nocodazole for 12 hours (10). Cells were then washed with PBS and treated with either vehicle or compound TDLR-505 (100 μM). Cells were harvested and analyzed for cell cycle distribution as described above.
(§2) Referring now to TABLE 1, the in vitro IC50 was determined by EMSA analysis as described in FIG. 1A. The cellular IC50 value was determined by treating H460 cells with the indicated compounds and analyzing annexinV/PI staining as described in Methods. The in vitro and cellular data was analyzed using standard 4 parameter logistic-curve. The IC50 values and standard error of the fit were determined from this analysis.
Referring now to FIGS. 4A, 4B, 4C and 4D, the effects of compound TDRL-505 on induction of cell death and cell cycle progression in a H460 NSCLC cell line was measured. Briefly, H460 cells were treated with compound TDRL-505 for 48 hours and analyzed for cell viability via staining with AnnexinV/PI and presented as dot plots (see FIG. 3A). Referring now to FIG. 4B, the data from FIG. 4A was quantified and the percentage of Annexin-/PI-cells (lower left quadrant), indicating live cells, was calculated. The average±SD (N=4) are presented and the data was fit to a 4-parameter logistic curve.

Human RPA = Human RPA (Homo sapiens (Human), UniProt P27694); assay: EMSA of inhibition of RPA binding to ssDNA; settings: for IC50: 25 nM RPA, 34-base DNA, 4 parameter logistic fit, read-out: IC50 (μM) In vitro; for inhibition at 100 µM: read-out: inhibition at the highest concentration tested
Experimental: Small molecule inhibitors were obtained from ChemDiv and resuspended in DMSO. Compound TDLR-505 was independently synthesized and structure confirmed by mass spectrometry analysis. Human RPA was purified using an E. coli over expression system as previously described (7). EMSAs were performed in 20 μL reactions containing 25 nM RPA, 25 nM 5′[^32P]-labeled 34-base […] DNA as previously described (7). The final concentration of DMSO was 1%.
as §2
Referring now to FIGS. 2C, D and E, EMSA analysis of compound TDLR-505, briefly, increasing concentrations of compound TDRL-505 were pre-incubated with RPA and DNA binding activity was assessed via EMSA using a 34-base ssDNA substrate. Referring now to FIG. 2D, the average and standard deviation of each point are presented. The data was fit to a standard 4 parameter logistic curve with an N=4.

H460 cells [2] = assay: H460 NSCLC mouse xenograft model; type: in vivo, NOD/SCID mice; settings: oral dosing
From the text: Mice that had been implanted with a human NSCLC tumor cells were subjected to a regime of oral dosing. The tumors were allowed to grow to 100 mm3 after which treatment with TDRL-505 or vehicle was commenced.

[3] = tested on: peripheral blood mononuclear cells (PBMCs); assay: Cytotoxicity in freshly isolated PBMCs; type: cell-based; settings: non-cancerous cells, data not shown
H460 NSCLC cells = assay: Cell cycle distribution by PI flow cytometry; type: cell-based, human
Experimental: as §1, with “Cells were then collected and stained with PI solution (10 μg/mL PI and 25 μg/mL RNaseA in PBS-EDTA supplemented with 1% BSA).” left out, “G2 arrest was induced by treatment with 0.8 μg/mL nocodazole for 12 hours (10). Cells were then washed with PBS and treated with either vehicle or compound TDLR-505 (100 μM).” left out
Referring now to FIG. 5A. H460 NSCLC cells were treated with 0 and 75 μM of compound TDLR-505 for 48 hours and then analyzed for cell cycle distribution using flow cytometry. […] Cells were then harvested and analyzed for cell cycle distribution using flow cytometry. […]

RPA = assay: Indirect immunofluorescence of RPA in H460 cells; type: cell-based, human; settings: 50 μM, 3 hours
Experimental: H460 cells were plated on chamber slides (LabTek) as described above. Cells were then treated for 3 hours with either 50 μM of compound TDLR-505 or vehicle as indicated and following treatment, cells were fixed in 4% paraformaldehyde at 25° C. for 3 minutes followed by washing in 0.2% Triton X-100 for 2 minutes at 4° C. The slides were then blocked in 15% FBS in PBS for 1 hour at 25° C. and then incubated with anti-RPA 34 primary antibody (Neomarkers) at a dilution of 1:500 in 15% FBS for 1 hour. Slides were then washed 3×10 minutes with 15% FBS and then incubated with Alexa Fluor-594 goat-anti-mouse secondary antibody (Invitrogen) at a dilution of 1:300 for 1 hour. Slides were again washed and stained with 300 nM DAPI diluted in PBS-EDTA for five minutes. […] Slides were visualized and images analyzed and quantified using ImageJ software.
These cellular effects seen following treatment with compound TDLR-505 correlate with an inability of RPA to interact with DNA which could then result in numerous possibilities including degradation or redistribution of RPA within the cell. […] Referring now to FIG. 4C, H460 cells were treated with 50 μM compound TDLR-505 or vehicle for 3 hours and analyzed for RPA expression and localization by indirect immunofluorescence using an Alexa Fluor594 secondary antibody (red). […] RPA expression was assessed via western blot analysis probing for the p34 subunit. […]

H460 cells [4] = assay: Combination index analysis with cisplatin or etoposide; type: cell-based, human; settings: 48 hours
Experimental: In addition to its essential role in DNA replication, RPA is required for the repair of bulky DNA adducts as well as DNA breaks induced by various types of exogenous and endogenous agents. […] In order to determine the effect of RPA inhibition on cellular sensitivity to cisplatin, the combination index (CI) (20) was measured. Referring now to FIG. 6. As illustrated in this experiment, compound TDLR-505 acts synergistically with both cisplatin and etoposide in H460 cells. H460 cells were treated with increasing fractions of the IC50 concentration of either cisplatin or etoposide with compound TDLR-505 for 48 hours. After treatment, cells were harvested and analyzed by annexin V/PI flow cytometry. Open circles indicate CI analysis of cisplatin with TDLR-505 and closed circles represent etoposide with TDLR-505. The combination index analysis was performed as previously described (20). The data are presented as the average±SD from (N=3). When cisplatin and compound TDLR-505 were used in combination, cell viability was decreased to a level that was greater than that induced by either agent alone, resulting in a synergy between the two compounds and CI of 0.4 at the highest fraction of cells affected. […] The ability of compound TDLR-505 to synergize with etoposide was also examined. Etoposide induces replication fork arrest and DNA damage response, both cellular processes that require RPA (21).

RPA p34 = assay: Western blot of RPA p34 in H460 cells; type: cell-based, human; settings: 100 μM, 6 hours, without or with 25 μM etoposide
Experimental: H460 cells were plated and treated with either vehicle or 100 μM compound TDLR-505 in the presence or absence of 25 μM etoposide for 6 hours and then processed for western blot analysis using a RIPA lysis and extraction procedure. RPA was detected with an anti-RPA p34 antibody (Neomarkers) and goat anti-mouse-HRP secondary (Santa Cruz). Bands were visualized using chemiluminescence detection.
These cellular effects seen following treatment with compound TDLR-505 correlate with an inability of RPA to interact with DNA which could then result in numerous possibilities including degradation or redistribution of RPA within the cell. Indirect immunofluorescence was used to assess how inhibition of RPA binding influences cellular localization. Referring now to FIG. 4C, H460 cells were treated with 50 μM compound TDLR-505 or vehicle for 3 hours and analyzed for RPA expression and localization by indirect immunofluorescence using an Alexa Fluor594 secondary antibody (red). Slides were counter stained with DAPI (blue) and images merged. Magnification of the boxed cells is presented below the low magnification images. […] (FIG. 4C). […] Referring now to FIG. 4D, H460 cells were treated with vehicle or 100 μM compound TDLR-505 without or with etoposide (25 μM) as indicated in the figure. RPA expression was assessed via western blot analysis probing for the p34 subunit. […]

A549 NSCLC cell line = assay: Cytotoxicity in A549 cells; type: cell-based; settings: data not shown
H460 NSCLC cell line [5] = assay: Crystal violet staining cell viability assay; type: cell-based; settings: Homo sapiens, NCI-H460; data not shown
[6] = Pharmacokinetic analysis in mice; type: in vivo; settings: for AUC(0-t) / Cmax / Tmax / half-life: mouse, serum
Experimental: Pharmacokinetic analysis. TDRL-505 was administered to mice at 200 mg/kg either ip or po and blood drawn at 1, 2, 4, 8, 24 and 48 hours post treatment. Serum concentration of TDRL-505 was measured using a HPLC MS/MS protocol and PK parameters analysis using on-compartmental analysis.
Based on the in vivo anticancer activity of TRL-505 a comparison of pharmacokinetic parameters with both ip and po dosing regimens was made. Naive mice were given a single dose and as described in Table 3, blood was drawn at various time intervals and TRDL-505 concentration determined via a HPCL/MSMS protocol developed for this compound.

NOD/SCID mice = settings: mouse, in vivo
Experimental: Mice were monitored for signs of overt toxicity and bodyweights measured three times per week. Mice were sacrificed and gross necroscopy performed to assess organ weights and inspected for signs of toxicity. […] NOD/SCID mice were then implanted with 5×10^6 H460 cells in 0.2 ml of 50% Matrigel subcutaneously. Tumors were allowed to develop for 7 days and TDRL-505 was administered via oral gavage 2× per week for one week. Tumor volumes were calculated by measuring the width and the length of the tumors and using these measurements in the equation: vol.=1×w^2/2.
Referring now to Table 3. […] Oral dosing in 0.1% Tween 80/methylcellulose was also well tolerated up to 800 mg/kg.

[7] = 200 mg/Kg PO, Methylcellulose/DMSO

Sequence of Human RPA (P27694 whole entry): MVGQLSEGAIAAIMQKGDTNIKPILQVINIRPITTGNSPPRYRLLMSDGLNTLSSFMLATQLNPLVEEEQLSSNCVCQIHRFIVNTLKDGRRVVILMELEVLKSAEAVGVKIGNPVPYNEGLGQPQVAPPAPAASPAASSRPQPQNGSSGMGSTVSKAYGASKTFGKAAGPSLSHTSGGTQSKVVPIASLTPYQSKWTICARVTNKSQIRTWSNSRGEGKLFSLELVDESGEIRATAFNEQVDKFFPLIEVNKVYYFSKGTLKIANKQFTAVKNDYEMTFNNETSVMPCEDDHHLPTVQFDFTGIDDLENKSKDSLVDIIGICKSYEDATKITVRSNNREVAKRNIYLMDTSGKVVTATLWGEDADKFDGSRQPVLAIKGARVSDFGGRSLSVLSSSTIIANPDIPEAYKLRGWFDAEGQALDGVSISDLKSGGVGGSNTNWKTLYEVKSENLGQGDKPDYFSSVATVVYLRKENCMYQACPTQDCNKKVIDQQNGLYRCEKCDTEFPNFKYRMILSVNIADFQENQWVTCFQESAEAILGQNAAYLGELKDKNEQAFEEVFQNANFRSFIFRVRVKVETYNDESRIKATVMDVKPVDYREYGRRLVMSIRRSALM
Sequence of Human RPA (P15927 whole entry partner): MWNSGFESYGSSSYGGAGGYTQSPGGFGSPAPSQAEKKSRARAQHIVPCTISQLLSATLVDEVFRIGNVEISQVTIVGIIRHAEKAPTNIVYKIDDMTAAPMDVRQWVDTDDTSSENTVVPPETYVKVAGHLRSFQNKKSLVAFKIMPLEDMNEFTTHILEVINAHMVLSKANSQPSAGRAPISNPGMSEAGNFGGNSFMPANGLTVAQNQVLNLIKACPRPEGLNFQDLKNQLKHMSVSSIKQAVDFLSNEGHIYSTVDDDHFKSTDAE
Sequence of Human RPA (P35244 whole entry partner): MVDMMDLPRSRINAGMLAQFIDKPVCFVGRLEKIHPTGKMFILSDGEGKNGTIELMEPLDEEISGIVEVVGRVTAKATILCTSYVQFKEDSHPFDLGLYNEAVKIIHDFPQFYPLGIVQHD

## COc1ccc(C2=NN(C(=O)CCC(=O)O)C(c3cn(-c4ccccc4)nc3-c3ccc(C)cc3)C2)cc1 (stereo not drawn) [TDRL-521]
H460 NSCLC cell line [1]
  IC50: 56.9 ± 6.7 µM
Human RPA
  IC50: 71.7 ± 33.9 µM

## Cc1ccc(-c2nn(-c3ccccc3)cc2C2CC(c3ccc(Br)cc3)=NN2C(=O)CCC(=O)O)cc1 (stereo not drawn) [TDRL-522]
H460 NSCLC cell line [1]
  IC50: 38 ± 32 µM
Human RPA
  IC50: 56.1 ± 6.7 µM

## COc1ccc(-c2nn(-c3ccccc3)cc2C2CC(c3ccc(Br)cc3)=NN2C(=O)CCC(=O)O)cc1 (stereo not drawn) [TDRL-523]
H460 NSCLC cell line [1]
  cellular activity (in words): modest cellular activity
  IC50: 31 ± 5.2 µM
Human RPA
  IC50: > 100 µM
  inhibition at 100 µM: 36%
Human RPA; full length RPA heterotrimer
  inhibition of RPA DNA binding (in words): minimal inhibition

## Cc1ccc(C2=NN(C(=O)CCC(=O)O)C(c3cn(-c4ccccc4)nc3-c3ccc(C)cc3)C2)cc1 (stereo not drawn) [TDRL-520]
H460 NSCLC cell line [1]
  IC50: 49.9 ± 2.5 µM
Human RPA
  IC50: 20.3 ± 10.7 µM

## CCOc1ccc2cc(C3CC(c4ccc(Br)cc4)=NN3C(=O)CCC(=O)O)c(Cl)nc2c1 (stereo not drawn) [TDRL-505]
H460 cells [2]; FIG. 7B
  tumor growth in individual mice vs vehicle (in words): significant reduction in tumor growth
H460 cells [2]; group mean, FIG. 7A
  tumor growth vs vehicle control (in words): reduction in tumor growth
[3]
  cytotoxic activity in PBMCs (in words): minimal cytotoxic activity
H460 NSCLC cells; 75 μM, 48 hours
  cell cycle distribution, asynchronous culture (in words): increase in the proportion of cells in G1-phase
H460 NSCLC cells; 100 μM, 4, 8 and 12 hours
  cell cycle progression after release from nocodazole G2 arrest (in words): did not enter S-phase even 12 hours post release
H460 NSCLC cell line [1]
  IC50: 30.8 ± 1.7 µM
RPA
  intensity of RPA staining vs vehicle (in words): decrease in the intensity of RPA staining
RPA; vehicle 23%
  cells with RPA staining intensity >70% of the maximum: 15%
H460 cells [4]; CI values greater than one
  interaction with cisplatin at lower fractions of cells affected (in words): additive and then antagonistic
H460 cells [4]; all fractions of cells affected
  interaction with etoposide (in words): synergistic activity
H460 cells [4]; highest fraction of cells affected
  combination index (CI) with cisplatin: 0.4
RPA p34
  RPA expression (p34 western blot, in words): not degraded or reduced in expression
Human RPA
  IC50: 13 µM and 12.9 µM
A549 NSCLC cell line
  cytotoxic effect in A549 cells (in words): A similar result
H460 NSCLC cell line [5]
  IC50: 64 µM
[6]; 200 mg/Kg IP, Tween80/DMSO
  Cl/F: 8.29 mL/h
  Vdss: 0.11 L
  AUC(0-t): 577 µg·h/mL
  Cmax: 31700 ng/mL
  Tmax: 8 h
  half-life: 7.13 h
[6]; [7]
  Cl/F: 202.33 mL/h
  Vdss: 0.88 L
  AUC(0-t): 25 µg·h/mL
  Cmax: 6400 ng/mL
  Tmax: 1 h
  half-life: 2.62 h
NOD/SCID mice; ip
  well tolerated dose, IP: up to 400 mg/kg
NOD/SCID mice; po
  well tolerated dose, oral: up to 800 mg/kg

## CCN(CC)c1ccc(C2CC(c3ccc(Br)cc3)=NN2C(=O)CCC(=O)O)cc1 (stereo not drawn) [TDRL-518]
Human RPA
  IC50: > 100 µM
  inhibition at 100 µM: 9%
